Source: US20250152585A1, “PHARMACEUTICAL COMPOUND” (Duke Street Bio Limited, priority 2022, published 2025)
pIC50, pKd: −log10 of the molar value. Read-outs that look alike come from different tables or passages of the source.

Tests used:
[1] = molecular target: T1, N-terminally FLAG-tagged PARP2 (amino acids 1-583) (Homo sapiens, UniProt Q9UGN5); test: PARP2 probe displacement HTRF assay; assay type: binding; conditions: binned Kd, PARP2 probe displacement HTRF
T1 construct: N-terminally FLAG-tagged PARP2 (amino acids 1-583)
T1 sequence (Q9UGN5 whole entry, the tested form may be a part): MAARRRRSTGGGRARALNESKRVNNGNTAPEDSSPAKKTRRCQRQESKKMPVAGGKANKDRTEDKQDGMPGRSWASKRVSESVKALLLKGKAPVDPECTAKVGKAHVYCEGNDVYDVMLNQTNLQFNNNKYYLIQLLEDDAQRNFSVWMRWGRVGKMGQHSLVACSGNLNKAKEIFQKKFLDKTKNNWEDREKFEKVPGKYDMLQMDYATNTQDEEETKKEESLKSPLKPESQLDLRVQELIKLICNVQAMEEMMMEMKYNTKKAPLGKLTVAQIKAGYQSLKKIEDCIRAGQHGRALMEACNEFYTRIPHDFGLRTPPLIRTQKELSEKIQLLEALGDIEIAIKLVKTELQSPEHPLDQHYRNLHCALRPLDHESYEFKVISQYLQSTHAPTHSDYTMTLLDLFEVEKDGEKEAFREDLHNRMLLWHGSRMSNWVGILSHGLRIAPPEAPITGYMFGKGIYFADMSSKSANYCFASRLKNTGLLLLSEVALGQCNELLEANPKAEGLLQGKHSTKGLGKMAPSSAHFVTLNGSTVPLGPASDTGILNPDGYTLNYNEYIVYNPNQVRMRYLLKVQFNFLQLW
Experimental: Data analysis was performed identical as for PARP1.

[2] = molecular target: T2, full length N-terminally FLAG-tagged PARP1 (Homo sapiens, UniProt P09874); test: PARP1 probe displacement HTRF assay; conditions: for Selectivity: PARP1 over PARP2, ratio Kd (PARP2)/Kd (PARP1), probe displacement HTRF; for pKd: binned Kd, PARP1 probe displacement HTRF
T2 sequence (P09874 whole entry): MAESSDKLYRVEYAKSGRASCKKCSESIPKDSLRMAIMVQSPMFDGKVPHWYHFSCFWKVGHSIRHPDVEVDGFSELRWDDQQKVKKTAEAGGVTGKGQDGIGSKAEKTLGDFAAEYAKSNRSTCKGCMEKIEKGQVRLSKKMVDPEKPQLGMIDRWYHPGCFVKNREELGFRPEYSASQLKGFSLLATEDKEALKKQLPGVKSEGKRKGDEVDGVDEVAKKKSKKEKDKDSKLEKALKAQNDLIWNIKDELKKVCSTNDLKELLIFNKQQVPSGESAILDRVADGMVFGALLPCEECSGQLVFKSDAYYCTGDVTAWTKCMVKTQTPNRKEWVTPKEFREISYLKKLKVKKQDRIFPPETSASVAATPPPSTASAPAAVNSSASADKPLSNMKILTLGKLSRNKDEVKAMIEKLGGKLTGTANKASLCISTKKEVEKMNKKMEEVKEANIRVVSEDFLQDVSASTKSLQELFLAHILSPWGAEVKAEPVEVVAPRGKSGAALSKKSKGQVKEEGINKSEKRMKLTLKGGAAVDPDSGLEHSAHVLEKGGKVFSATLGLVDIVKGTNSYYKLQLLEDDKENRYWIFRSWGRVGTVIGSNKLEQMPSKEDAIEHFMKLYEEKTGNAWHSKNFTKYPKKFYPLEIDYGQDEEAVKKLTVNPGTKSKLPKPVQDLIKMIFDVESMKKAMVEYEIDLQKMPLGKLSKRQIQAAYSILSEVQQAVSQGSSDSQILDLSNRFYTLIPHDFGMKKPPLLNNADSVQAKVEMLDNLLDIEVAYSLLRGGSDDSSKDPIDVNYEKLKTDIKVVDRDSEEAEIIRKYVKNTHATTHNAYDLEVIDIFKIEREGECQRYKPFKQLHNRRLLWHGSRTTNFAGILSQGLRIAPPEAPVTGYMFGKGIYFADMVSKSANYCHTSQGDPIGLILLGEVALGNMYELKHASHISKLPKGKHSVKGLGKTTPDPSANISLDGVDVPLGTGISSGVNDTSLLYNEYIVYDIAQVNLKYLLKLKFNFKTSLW

[3] = molecular target: T2, full length N-terminally FLAG-tagged PARP1; test: PARP1 biochemical DELFIA assay (auto-PARylation); design: recombinant full length human N-terminally FLAG-tagged PARP1; conditions: binned IC50, PARP1 biochemical DELFIA assay

In the case of `CNC(=O)c1ccc(N2CCC(N3CCC(c4nc5c(c(C(F)(F)F)cn5C)c(=O)[nH]4)C3)CC2)cn1` (single isomer, unassigned) [Compound 170b], the pKd [1] was over 8.00, the Selectivity [2] was “− (− indicates a value of less than 10)” and the pKd ([2]; read-out: PARP1 HTRF) was over 8.00. For the same compound, the pIC50 [3] was over 8.00.
`CNC(=O)c1ccc(N2CCC(N3CCC(c4cc5c(F)cccc5c(=O)[nH]4)C3)CC2)cn1` (single isomer, unassigned) [Compound 172a] was tested, and the pKd [1] was 5.00 to 6.00, the Selectivity [2] was “+++ (+++ indicate a value of at least 100)” and the pKd ([2]; read-out: PARP1 HTRF) was over 8.00. For the same compound, the pIC50 [3] was over 8.00.
With `CNC(=O)c1ccc(N2CCC(N3CCC(c4cc5c(F)cccc5c(=O)[nH]4)C3)CC2)cn1` (single isomer, unassigned) [Compound 172b] the pKd [1] was 7.00 to 8.00, the Selectivity [2] was “+++ (+++ indicate a value of at least 100)” and the pKd ([2]; read-out: PARP1 HTRF) was over 8.00. It also gave a pIC50 [3] of over 8.00.
In the case of `CNC(=O)c1ccc(N2CCC(N3CCC(c4nc5onc(C(F)(F)F)c5c(=O)[nH]4)C3)CC2)cn1` (single isomer, unassigned) [Compound 176a], the pKd [1] was under 5.00, the Selectivity [2] was “+ (+ indicates a value of 10 to less than 50)” and the pKd ([2]; read-out: PARP1 HTRF) was 6.00 to 7.00. It also gave a pIC50 [3] of 6.00 to 7.00.
`CNC(=O)c1ccc(N2CCC(N3CCC(c4nc5onc(C(F)(F)F)c5c(=O)[nH]4)C3)CC2)cn1` (single isomer, unassigned) [Compound 176b] was tested, and the pKd [1] was under 5.00, the Selectivity [2] was “++ (++ indicates a value of 50 to less than 100)” and the pKd ([2]; read-out: PARP1 HTRF) was 6.00 to 7.00. For the same compound, the pIC50 [3] was 7.00 to 8.00.
`CNC(=O)c1ccc(N2CCC(N3CCC(c4cc5c(F)ccc(F)c5c(=O)[nH]4)C3)CC2)cn1` (single isomer, unassigned) [Compound 180a] was tested, and the pKd [1] was 5.00 to 6.00, the Selectivity [2] was “+++ (+++ indicate a value of at least 100)” and the pKd ([2]; read-out: PARP1 HTRF) was over 8.00. It also gave a pIC50 [3] of over 8.00.
For `CNC(=O)c1ccc(N2CCC(N3CCC(c4nc5c(F)cc(F)cc5c(=O)[nH]4)C3)CC2)cn1` (single isomer, unassigned) [Compound 181a], the pKd [1] was 6.00 to 7.00, the Selectivity [2] was “+ (+ indicates a value of 10 to less than 50)” and the pKd ([2]; read-out: PARP1 HTRF) was 7.00 to 8.00. For the same compound, the pIC50 [3] was 7.00 to 8.00.
With `CNC(=O)c1ccc(N2CCC(N3CCC(c4nc5c(F)cc(F)cc5c(=O)[nH]4)C3)CC2)cn1` (single isomer, unassigned) [Compound 181b] the pKd [1] was 6.00 to 7.00, the Selectivity [2] was “+++ (+++ indicate a value of at least 100)” and the pKd ([2]; read-out: PARP1 HTRF) was over 8.00. For the same compound, the pIC50 [3] was over 8.00.
With `CNC(=O)c1ccc(N2CCC(N3CCC(c4nc5c(F)ccc(F)c5c(=O)[nH]4)C3)CC2)cn1` (single isomer, unassigned) [Compound 182a] the pKd [1] was 6.00 to 7.00, the Selectivity [2] was “+ (+ indicates a value of 10 to less than 50)” and the pKd ([2]; read-out: PARP1 HTRF) was 7.00 to 8.00. It also gave a pIC50 [3] of 7.00 to 8.00.
For `CNC(=O)c1ccc(N2CCC(N3CCC(c4nc5c(F)ccc(F)c5c(=O)[nH]4)C3)CC2)cn1` (single isomer, unassigned) [Compound 182b], the pKd [1] was 6.00 to 7.00, the Selectivity [2] was “+++ (+++ indicate a value of at least 100)” and the pKd ([2]; read-out: PARP1 HTRF) was over 8.00. It also gave a pIC50 [3] of over 8.00.
`CNC(=O)c1ccc(N2CCC(N3CCC(c4cc5cccc(F)c5c(=O)[nH]4)C3)CC2)c(Cl)n1` (single isomer, unassigned) [Compound 183a] was tested, and the pKd [1] was 5.00 to 6.00, the Selectivity [2] was “+++ (+++ indicate a value of at least 100)” and the pKd ([2]; read-out: PARP1 HTRF) was over 8.00. For the same compound, the pIC50 [3] was over 8.00.
With `CNC(=O)c1ccc(N2CCC(N3CCC(c4cc5cccc(F)c5c(=O)[nH]4)C3)CC2)c(F)n1` (single isomer, unassigned) [Compound 184a, 6-fluoro-5-[4-[3-(8-fluoro-1-oxo-2H-isoquinolin-3-yl)pyrrolidin-1-yl]piperidin-1-yl]-N-methylpyridine-2-carboxamide] the pKd [1] was 5.00 to 6.00, the pKd ([2]; PARP1 HTRF) was over 8.00 and the Selectivity [2] was “+++ (+++ indicate a value of at least 100)”. It also gave a pIC50 [3] of over 8.00.
With `CNC(=O)c1ccc(N2CCC(N3CCCC(c4nc5sc6c(c5c(=O)[nH]4)CCC6)C3)CC2)cn1` (single isomer, unassigned) [Compound 185a] the pKd [1] was 6.00 to 7.00, the Selectivity [2] was “+++ (+++ indicate a value of at least 100)” and the pKd ([2]; read-out: PARP1 HTRF) was over 8.00. For the same compound, the pIC50 [3] was over 8.00.
With `CNC(=O)c1ccc(N2CCC(N3CCCC(c4nc5sc6c(c5c(=O)[nH]4)CCC6)C3)CC2)cn1` (single isomer, unassigned) [Compound 185b] the pKd [1] was 5.00 to 6.00, the Selectivity [2] was “+ (+ indicates a value of 10 to less than 50)” and the pKd ([2]; read-out: PARP1 HTRF) was 6.00 to 7.00. For the same compound, the pIC50 [3] was 7.00 to 8.00.
`CNC(=O)c1ccc(N2CCC(N3CCC(c4cc5c(F)cc(F)cc5c(=O)[nH]4)C3)CC2)cn1` (single isomer, unassigned) [Compound 186a] was tested, and the pKd [1] was 6.00 to 7.00, the Selectivity [2] was “+++ (+++ indicate a value of at least 100)” and the pKd ([2]; read-out: PARP1 HTRF) was over 8.00. It also gave a pIC50 [3] of over 8.00.
`CNC(=O)c1ccc(N2CCC(N3CCC(c4nc5c(c(C(F)(F)F)nn5C)c(=O)[nH]4)C3)CC2)cn1` (single isomer, unassigned) [Compound 187a] was tested, and the pKd [1] was 6.00 to 7.00, the Selectivity [2] was “− (− indicates a value of less than 10)” and the pKd ([2]; read-out: PARP1 HTRF) was 7.00 to 8.00. For the same compound, the pIC50 [3] was 7.00 to 8.00.
With `CNC(=O)c1ccc(N2CCC(N3CCC(c4nc5c(c(C(F)(F)F)nn5C)c(=O)[nH]4)C3)CC2)cn1` (single isomer, unassigned) [Compound 187b] the pKd [1] was over 8.00, the Selectivity [2] was “− (− indicates a value of less than 10)” and the pKd ([2]; read-out: PARP1 HTRF) was over 8.00. It also gave a pIC50 [3] of over 8.00.
In the case of `CNC(=O)c1ccc(N2CCC(N3CCC(c4ccc(CC(F)(F)F)c(=O)[nH]4)C3)CC2)cn1` (single isomer, unassigned) [Compound 188a], the pKd [1] was under 5.00, the Selectivity [2] was “+ (+ indicates a value of 10 to less than 50)” and the pKd ([2]; read-out: PARP1 HTRF) was 6.00 to 7.00. The pIC50 [3] was 6.00 to 7.00.
In the case of `CNC(=O)c1ccc(N2CCC(N3CCC(c4ccc(CC(F)(F)F)c(=O)[nH]4)C3)CC2)cn1` (single isomer, unassigned) [Compound 188b], the pKd [1] was 6.00 to 7.00, the Selectivity [2] was “+++ (+++ indicate a value of at least 100)” and the pKd ([2]; read-out: PARP1 HTRF) was over 8.00. It also gave a pIC50 [3] of over 8.00.
For `CNC(=O)c1ccc(N2CCC(N3CCC(c4nc5sc6c(c5c(=O)[nH]4)CCC6)C3)CC2)cn1` (single isomer, unassigned) [Compound 189a], the pKd [1] was 6.00 to 7.00, the Selectivity [2] was “− (− indicates a value of less than 10)” and the pKd ([2]; read-out: PARP1 HTRF) was 7.00 to 8.00. It also gave a pIC50 [3] of 7.00 to 8.00.
For `CNC(=O)c1ccc(N2CCC(N3CCC(c4nc5sc6c(c5c(=O)[nH]4)CCC6)C3)CC2)cn1` (single isomer, unassigned) [Compound 189b], the pKd [1] was 7.00 to 8.00, the Selectivity [2] was “++ (++ indicates a value of 50 to less than 100)” and the pKd ([2]; read-out: PARP1 HTRF) was over 8.00. It also gave a pIC50 [3] of over 8.00.
For `CNC(=O)c1ccc(N2CCC(N3CCCC(c4nc5c(c(C(F)(F)F)nn5C)c(=O)[nH]4)C3)CC2)cn1` (single isomer, unassigned) [Compound 190a], the pKd [1] was 5.00 to 6.00, the Selectivity [2] was “+ (+ indicates a value of 10 to less than 50)” and the pKd ([2]; read-out: PARP1 HTRF) was 6.00 to 7.00. The pIC50 [3] was 6.00 to 7.00.
With `CNC(=O)c1ccc(N2CCC(N3CCCC(c4nc5c(c(C(F)(F)F)nn5C)c(=O)[nH]4)C3)CC2)cn1` (single isomer, unassigned) [Compound 190b] the pKd [1] was 7.00 to 8.00, the Selectivity [2] was “++ (++ indicates a value of 50 to less than 100)” and the pKd ([2]; read-out: PARP1 HTRF) was over 8.00. The pIC50 [3] was over 8.00.
With `CNC(=O)c1ccc(N2CCC(N3CCC(c4cc5[nH]nc(C(F)(F)F)c5c(=O)[nH]4)C3)CC2)cn1` (single isomer, unassigned) [Compound 194a, N-methyl-5-(4-(3-(4-oxo-3-(trifluoromethyl)-4,5-dihydro-1H-pyrazolo[4,3-c]pyridin-6-yl)pyrrolidin-1-yl)piperidin-1-yl)picolinamide] the pKd [1] was 5.00 to 6.00, the pKd ([2]; PARP1 HTRF) was 7.00 to 8.00 and the Selectivity [2] was “+ (+ indicates a value of 10 to less than 50)”. It also gave a pIC50 [3] of 7.00 to 8.00.
With `CNC(=O)c1ccc(N2CCC(N3CCC(c4cc5[nH]nc(C(F)(F)F)c5c(=O)[nH]4)C3)CC2)cn1` (single isomer, unassigned) [Compound 194b, N-methyl-5-(4-(3-(4-oxo-3-(trifluoromethyl)-4,5-dihydro-1H-pyrazolo[4,3-c]pyridin-6-yl)pyrrolidin-1-yl)piperidin-1-yl)picolinamide] the pKd [1] was 7.00 to 8.00, the pKd ([2]; PARP1 HTRF) was over 8.00 and the Selectivity [2] was “+ (+ indicates a value of 10 to less than 50)”. It also gave a pIC50 [3] of over 8.00.
`CNC(=O)c1ccc(N2CCC(N3CCC(c4cc5ccc(F)cc5c(=O)[nH]4)C3)CC2)c(C)n1` (single isomer, unassigned) [Compound 196b] was tested, and the pKd [1] was 5.00 to 6.00, the Selectivity [2] was “+++ (+++ indicate a value of at least 100)” and the pKd ([2]; read-out: PARP1 HTRF) was over 8.00. For the same compound, the pIC50 [3] was over 8.00.
In the case of `CNC(=O)c1ccc(N2CCC(N3CCC(c4cc5ccc(F)cc5c(=O)[nH]4)C3)CC2)nn1` (single isomer, unassigned) [Compound 197b], the pKd [1] was 5.00 to 6.00, the Selectivity [2] was “+++ (+++ indicate a value of at least 100)” and the pKd ([2]; read-out: PARP1 HTRF) was 7.00 to 8.00. The pIC50 [3] was 7.00 to 8.00.
With `CNC(=O)c1ccc(N2CCC(N3CCCC(c4nc5sc(C)c(C)c5c(=O)[nH]4)C3)CC2)cn1` (single isomer, unassigned) [Compound 199a] the pKd [1] was 6.00 to 7.00, the Selectivity [2] was “+++ (+++ indicate a value of at least 100)” and the pKd ([2]; read-out: PARP1 HTRF) was over 8.00. The pIC50 [3] was over 8.00.
With `CNC(=O)c1ccc(N2CCC(N3CCCC(c4nc5sc(C)c(C)c5c(=O)[nH]4)C3)CC2)cn1` (single isomer, unassigned) [Compound 199b] the pKd [1] was under 5.00, the Selectivity [2] was “+ (+ indicates a value of 10 to less than 50)” and the pKd ([2]; read-out: PARP1 HTRF) was 6.00 to 7.00. It also gave a pIC50 [3] of 6.00 to 7.00.
For `CNC(=O)c1ccc(N2CCC(N3CCC(c4ccc(Cl)c(=O)[nH]4)C3)CC2)cn1` (single isomer, unassigned) [Compound 201a], the pKd [1] was under 5.00, the Selectivity [2] was “+ (+ indicates a value of 10 to less than 50)” and the pKd ([2]; read-out: PARP1 HTRF) was 6.00 to 7.00. The pIC50 [3] was 6.00 to 7.00.
